Read-outs that look alike come from different tables or passages of the source.
Columns and labels:
Format in all cases: in vivo, rat
[1] = test system: sub-chronic PCP-induced deficit in social behaviour in female Lister-Hooded rats; test: social interaction test in sub-chronic PCP treated rats
Protocol: The aim of the current study was to investigate the ability of CBD-C4 (3, 10 & 30 mg/kg IP; 60 min pre-treatment (ptt)) in comparison with risperidone (an atypical antipsychotic; 0.1 mg/kg IP; 60 min pre-treatment), to antagonise a sub-chronic PCP (scPCP; 2 mg/kg IP; twice daily for 7-days; 7 day wash out)-induced deficit in social behaviour in female Lister-Hooded rats.
180 female Lister Hooded rats were used for this experiment, of which 90 were used for the drug study and 90 weight-matched untreated conspecifics were used as the companion rat, and their behaviour was not scored.
Rats were housed in groups of 5 under standard laboratory conditions under a 12-hr light: dark cycle, lights on at 0700 hr. Testing was carried out in the light phase. These studies were carried out in accordance with the Animals Scientific Procedures Act (UK, 1986).
CBD-C4 was used at doses of (3, 10, 30 mg/kg, i.p.) and risperidone was used at a dose of 0.1 mg/kg, i.p.
Rats were randomly assigned to two treatment groups and treated with vehicle, n=15 (distilled water, i.p.) or PCP, n=75 (2 mg/kg, i.p. twice daily for 7-days). This was followed by a 7-day wash out period before the rats were tested following acute treatment with CBD-C4, risperidone or vehicle.
Risperidone (0.1 mg/kg) was dissolved in a minimum volume of acetic acid, made up to volume with distilled water and pH adjusted to 6 with 0.1M NaOH and administered via the i.p. route in a volume of 1 ml/kg, 60 min prior to testing.
CBD-C4 (3, 10 & 30 mg/kg) was dissolved in 2:1:17 (Ethanol:Cremophor EL:Saline 0.9%). CBD-C4 was administered via the i.p. route in a volume of 5 ml/kg, 60 min prior to testing.
The social interaction test was performed in an open-field comprising a square box made of Plexiglas (52×52×31 cm) placed 27 cm above the floor on a moveable trolley. The floor of the box was white with black gridlines forming 9 identical squares on it. All other walls were black. A video camera connected to a video recorder and monitor was positioned above the box. The object used for the test consists of a heavy structure made of metal that cannot be displaced by the animals.
After a 7 day drug-free period, the rats were habituated to the test environment and arena prior to the test day. Habituation consisted of placing all rats from one cage together in the empty test arena for one hour for three days including the day before the test day.
Pairs of rats, weight matched (15-20 g) and unfamiliar to each other, receiving either no treatment (n=90 “conspecific” rats) or different treatments (PCP; n=15 “tested” rats, Vehicle; n=15 “tested” rats, or PCP+drug; n=60 “tested” rats) were placed in the test arena together for 10 minutes and behavior assessed as described below.
An inanimate object such as an unopened drink can was also placed in the centre of the arena to measure any differences in interaction of the test animal with an unfamiliar animal as opposed to an unfamiliar object. After each 10-minute trial, the object and arena were cleaned with 10% alcohol in an attempt to remove traces of any olfactory cues. All testing was carried out under standard room illumination levels (70 cd/m^2).
Behaviour in both trials was recorded on video for subsequent blind scoring. A behavioural scoring software program (Hindsight, Scientific programming services) was used to score the following parameters:
Investigative sniffing behaviour: sniffing the conspecific's snout or parts of the body including the anogenital region.
Following: rat moves after the conspecific i.e. a vehicle treated rat of the same species, around the arena.
Avoidances: actively turning away when approached by the conspecific animal.
Investigation of object: exploration of object placed in centre of the arena.
Locomotor activity is recorded by counting the total number of sectors (i.e. lines) crossed by the test rat.
All data were assessed for normality using D'Agostino and Pearson normality test. […]

[2] = 13-week oral toxicity study in rats; conditions: both sexes, rat, in vivo
Protocol: (§1) The objective of the study was to determine the toxicity of CBD-C4 following daily oral (gavage) administration to the rat for 4 and 13 weeks. The toxicokinetic profile of the CBD-C4 was also assessed.
(§2) Groups of 10 male and 10 female rats were doses at 1, 10 and 100 mg/kg/day for either 4 or 13 weeks.
(§3) Assessment of toxicity of CBD-C4 was based on mortality, clinical observations, post-dose observations, body weights, food consumption, ophthalmic observations, clinical and anatomic pathology.
(§4) Blood samples were collected on days 1 and 28 and week 13 of the study.

[3] = test system: rats; test: 13-week oral toxicity study in rats
Protocol: as §1, §2, §3, §4

[4] = Embryo-foetal development study in rats; conditions: female, Wistar (Han), rat, in vivo
Protocol: (§5) The objective of the study was to determine the effects of CBD-C4 on the embryonic and foetal development of the rat. The toxicokinetic profile of CBD-C4 was also assessed.
(§6) Three groups of 20 time-mated female Wistar (Han) rats were given CBD-C4 once daily by the oral (gavage) route from Day 6 to Day 17 of gestation at dose levels of 1, 10 or 100 mg/kg/day (at a constant dose volume of 5 mL/kg), to cover the period of organogenesis.
(§7) A similar group of rats was given the vehicle, sesame oil, following the same regimen to act as controls.
(§8) Blood samples were taken for toxicokinetic evaluation at pre-dose, 1, 2, 4, 6 and 24 hours after dosing on Days 6 and 17 of gestation. Clinical observations, body weight and food consumption were recorded. On Day 21 of gestation (GD 21) the females were euthanised, and the progress and outcome of pregnancy was evaluated.
(§9) Foetuses were evaluated for external, visceral and skeletal malformations and […]

[5] = test system: pregnant Wistar (Han) rats; test: Embryo-foetal development study in rats
Protocol: as §5, §6, §7, §8, §9

[6] = CBD-C4 3, 10, 30 mg/kg, risperidone 0.1 mg/kg i.p., data not shown
[7] = 1, 10 or 100 mg/kg/day oral gavage, 4 or 13 weeks
[8] = 1, 10 or 100 mg/kg/day oral, GD 6-17

SMILES: C=C(C)[C@@H]1CCC(C)=C[C@H]1c1c(O)cc(CCCC)cc1O [CBD-C4, (1′R,2′R)-4-butyl-5′-methyl-2′-(prop-1-en-2-yl)-1′,2′,3′,4′-tetrahydro-[1,1′-biphenyl]-2,6-diol]
- behavioural deficits induced by scPCP ([1]; 30 mg/kg i.p.): improved all the behavioural deficits
- avoidance behaviour compared to the scPCP-treated group ([1]; 30 mg/kg i.p., 60 min pre-treatment): significantly decreased
- following behaviour compared to scPCP ([1]; 30 mg/kg i.p., 60 min pre-treatment, P<0.001): significantly increased
- sniffing behaviour compared to scPCP ([1]; 30 mg/kg i.p., 60 min pre-treatment, P<0.01): significant increase
- line crossings (locomotor activity) [1, 6]: no significant effect
- object exploration [1, 6]: no significant effect
- any of the parameters measured in the social interaction test ([1]; lower doses 3 and 10 mg/kg i.p.): no effect
- NOAEL at 13 weeks ([2]; 13-week daily oral gavage, rats): 100 mg/kg/day
- NOAEL at 13 weeks ([2]; 13-week oral, sesame oil formulation, rats (summary)): 100 mg/kg
- clinical pathology parameters [3, 7]: no adverse changes
- clinical signs [3, 7]: no adverse clinical signs
- food consumption, body weight, body weight gains and ophthalmoscopy [3, 7]: unaffected
- test article-related deaths [3, 7]: no test article-related deaths
- tolerability [3, 7]: well tolerated
- liver findings ([3]; after 4 and 13 weeks of treatment, predominantly at 100 mg/kg/day, considered non-adverse): Large livers with correlating organ weight increase and centrilobular hypertrophy
- NOAEL ([4]; oral, embryo-foetal development study, sesame oil formulation (summary), read-out: NOAEL): 100 mg/kg
- NOAEL ([4]; oral gavage GD 6-17, read-out: NOAEL for maternal and embryo-foetal toxicity): 100 mg/kg/day
- mean body weight of females ([5]; 1 mg/kg/day): unaffected
- foetal malformations ([5]; 10 mg/kg/day, different organ systems, no developmental pattern): two foetuses with malformations
- mean food consumption ([5]; 100 mg/kg/day, two days after the start of dosing, compared with controls): Lower mean food consumption
- CBD-C4-related foetal malformations ([5]; 1, 10 or 100 mg/kg/day): no CBD-C4-related foetal malformations
- mean foetal weight and percentage of male foetuses ([5]; 1, 10 or 100 mg/kg/day): no effect
- pregnancy parameters (number of implantations, pre- or post-implantation losses, number of live foetuses) ([5]; 1, 10 or 100 mg/kg/day): no effect
- mortality [5, 8]: no mortality
- treatment-related clinical observations [5, 8]: no treatment-related clinical observations
- mean food consumption ([5]; 1 or 10 mg/kg/day): unaffected
- mean body weight of females ([5]; 10 or 100 mg/kg/day, one day after the start of dosing on Day 6 of gestation): Dose-related mean body weight loss
- foetal variations ([5]; any of the groups maternally dosed): no noteworthy foetal variations
- tolerability ([5]; dose levels up to 100 mg/kg/day, pregnant rats): well tolerated
- foetal malformations ([5]; maternally dosed at 1 or 100 mg/kg/day): no malformations
